# Earlier results as cited in patent US4898737A, “Controlled absorption pharmaceutical composition” (Elan Corporation plc, priority 1983, dated 1990).
smiles,measurement,setting,value
"CC(C)NCC(O)COc1cccc2ccccc12 (stereo not drawn) [propranolol, 1-(isopropylamino)-3-(1-naphthyloxy)-2-propanol]",time of peak plasma concentrations,after a single oral dose,one to two
same,metabolism,oral,extensively and rapidly metabolised
same,urinary excretion,oral,excreted in the urine as free and conjugated propranolol and as metabolites
